Bridges are numbered along the chain shown (N, C = ends). Where no end group is shown, it is not given here.
Key:
[1] = tested on: S. mutans; assay: Growth curves (optical density) of S. mutans in liquid BHI culture; type: cell-based, Streptococcus mutans
Procedure: Subsequently, 50-, 100- and 150-μl volumes of these two fractions, 3-10 kD and 0-3 kD, respectively, were added to a liquid culture of S. mutans and to a liquid culture of S. sobrinus, and the optical density was measured in a 48-well Fluostar luminometer every half-hour, with each treatment in triplicate, for 12-19 hours. […]
In order to corroborate that the peptides identified are those responsible for the inhibitory activity against cariogenic bacteria, the S12E (bacteriocins of bacterial origin) and T5A (peptide of human origin with a structure similar to that of defensins) peptides were chemically synthesised, obtaining approximately 4 mg of each of said peptides with a purity greater than 80%. They were totally re-suspended in 0.1% trichloroacetic acid (TCA) and the experiments designed to test the inhibition of liquid cultures of S. mutans by said chemically-synthesised compounds were performed. […]

[2] = tested on: S. sobrinus; assay: Growth curves (optical density) of S. sobrinus in liquid BHI culture; type: cell-based, Streptococcus sobrinus; settings: chemically synthesised peptide, purity greater than 95%, re-suspended in ultrapure water, FIG. 6B
Procedure: Subsequently, […], respectively, were added to a liquid culture of S. mutans and to a liquid culture of S. sobrinus, and the optical density was measured in a 48-well Fluostar luminometer every half-hour, with each treatment in triplicate, for 12-19 hours.

Substance	inhibitory effect on liquid cultures of S. mutans ([1]; chemically synthesised peptide, first synthesis without disulfide bridge)	inhibition of the growth of S. mutans at maximum peptide concentration ([1]; synthesised peptide with disulfide bridge between cysteines 3 and 12, 80 μg)	inhibition of the growth of S. mutans ([1]; synthesised peptide with disulfide bridge between cysteines 3 and 12, different concentrations, FIG. 7)	inhibitory effect on S. sobrinus [2]	inhibitory activity against cultures of S. mutans ([1]; chemically synthesised peptide, purity greater than 80%, re-suspended in 0.1% TCA, FIG. 5)	inhibitory effect on S. mutans ([1]; chemically synthesised peptide, purity greater than 95%, re-suspended in ultrapure water, FIG. 6A)
T5A peptide: chemically synthesised defensin-type peptide of human origin, 26 amino acids; active form has disulfide bridge between cysteines 3 and 12 (MSCKKESLGSKCNYILLWYQPTESPH; disulfide 3-12; listed as Homo sapiens)	no inhibitory effect	total inhibition of the growth	capable of inhibiting the growth			
S12E peptide: chemically synthesised bacteriocin-type anti-microbial peptide of bacterial origin, 39 amino acids, from S12E fosmid (MPFEAVGEARLAARTSRPGDRGPGNRAEESPDSAEQGGG; Streptococcus species)				dose-dependent inhibitory effect	inhibitory activity against cultures of S. mutans was confirmed	dose-dependent inhibitory effect
